In patent publication US5356898A, “Substituted 4,6-di-tertiary-butyl 5-hydroxy-pyrimidines” (Warner-Lambert Company, priority 1993, dated 1994):

What was measured:
cyclooxygenase = experiment: ARBC whole cell cyclooxygenase assay (PGF2α formation in RBL-1 cells, RIA); assay type: cell-based, rat; conditions: @ 10 μM; inhibition of PGF2α formation, RBL-1 cells stimulated with calcium ionophore A23187
Experimental: (§1) ARBL/ARBC Whole Cell 5-Lipoxygenase and Cyclooxygenase Assays The rat basophilic leukemia cell line (RBL-1) was obtained from the American Type Culture Collection (Rockville, Md.). Radioimmunoassay (RIA) kits of LTB4 and PGF2.sbsb.α were obtained from Amersham (Arlington Heights, Ill.) and Seragen (Boston, Mass.), respectively. RBL-1 cells are grown in suspension culture in Eagle's minimum essential medium supplemented with 12% fetal bovine serum at 37° C. in an incubator supplied with air-5% carbon dioxide. Cells are harvested by centrifugation. They are washed with cold phosphate buffered saline pH 7.4 (PBS; NaCl, 7.1 g; Na2 HPO4, 1.15 g; KH2 PO4, 0.2 g; and KCl, 0.2 g/l). Cells are finally suspended in PBS containing 1.0 mM calcium at a density of 2×10^6 cells/mi. Cells are incubated with and without test agent (in DMSO) (1% DMSO is without effect on arachidonic acid metabolism) for ten minutes at room temperature. Calcium ionophore A23187 (5 μM) is added and cells are incubated for seven minutes at 37° C. The reaction is stopped by chilling the tubes on ice for ten minutes. Cells are separated by centrifugation and the supernatant is stored at -20° Aliquots (100 μl) are analyzed for LTB4 and PGF2.sbsb.α using radioimmunoassay kits as provided by the supplier. […]

5-lipoxygenase = experiment: ARBL whole cell 5-lipoxygenase assay (LTB4 formation in RBL-1 cells, RIA); assay type: cell-based, rat; conditions: @ 10 μM; inhibition of LTB4 formation, RBL-1 cells stimulated with calcium ionophore A23187
Experimental: as §1

Structure (SMILES): CSc1nnc(-c2nc(C(C)(C)C)c(O)c(C(C)(C)C)n2)s1 [Example 13, 5-[4,6-Bis(1,1-dimethylethyl)-5-hydroxy-2-pyrimidinyl]-2-thiomethoxy-1,3,4-3H-thiadiazole]
- ARBC (cyclooxygenase): 85%
- ARBL (5-lipoxygenase): 93%

Structure (SMILES): CC(C)(C)c1nc(C#N)nc(C(C)(C)C)c1O [Example 19, 4,6-Bis.(1,1-dimethylethyl)-5-hydroxy-2-pyrimidine carbonitrile]
- ARBC (cyclooxygenase): 45%
- ARBL (5-lipoxygenase): 70%
